Results as given in the NIST ThermoML archive (doi:10.1021/je100341q).
Numbers after ± are expanded uncertainties.

Columns and labels:
[1] = for Normal melting temperature: Crystal, DTA; for mass density: 293.15 K, 101.33 kPa, Liquid, Pycnometric method
[2] = Molar enthalpy of transition or fusion; settings: Crystal; DSC
[3] = refractive index (Na D-line) (dimensionless); settings: 293.15 K; 101.33 kPa; Liquid; Standard Abbe refractometry

| SMILES | Normal melting temperature [1] [°C] | Molar enthalpy of transition or fusion [2] [kcal/mol] | mass density [1] [kg/m3] | refractive index [3] |
| --- | --- | --- | --- | --- |
| O=P1(O)OCC2(CO1)COP(=O)(O)OC2 (stereo not given) | 310.57 ± 0.5 | 5.37 ± 0.17 | – | – |
| O=P1(Oc2ccccc2)OCC2(CO1)COP(=O)(Oc1ccccc1)OC2 (stereo not given) | 196.43 ± 0.5 | 8.71 ± 0.239 | – | – |
| C1COCCO1 [1,4-dioxane] | – | – | 1034 ± 1 | 1.4175 ± 0.0008 |
| O=C(O)CCP(=O)(O)c1ccccc1 [3-(hydroxy(phenyl)phosphoryl)propanoic acid] | 159.51 ± 0.5 | 8.03 ± 0.232 | – | – |
| CC(C)=O [acetone] | – | – | 790 ± 1 | 1.359 ± 0.0007 |
| CCC(C)=O [butanone] | – | – | 805 ± 1 | 1.3788 |
| C1CCCCC1 [cyclohexane] | – | – | 779 ± 1 | 1.4266 ± 0.0007 |
| ClCCl [dichloromethane] | – | – | 1321 ± 1 | 1.4237 ± 0.0007 |
| CCOCC [diethyl ether] | – | – | 714 ± 1 | 1.3497 ± 0.0007 |
| c1ccncc1 [pyridine] | – | – | 983 ± 1 | 1.5095 ± 0.0007 |
| C1CCOC1 [tetrahydrofuran] | – | – | – | 1.405 ± 0.0008 |
| Cc1ccccc1 [toluene] | – | – | 866 ± 1 | 1.4967 ± 0.0007 |
| ClC(Cl)Cl [trichloromethane] | – | – | 1484 ± 2 | 1.4476 ± 0.0007 |

Other lines, results leading:

| Normal melting temperature [1] [°C] | Molar enthalpy of transition or fusion [2] [kcal/mol] | mass density [1] [kg/m3] | refractive index [3] | SMILES |
| --- | --- | --- | --- | --- |
| – | – | 929 ± 1 | 1.4065 ± 0.0007 | CCOCCO [2-ethoxyethan-1-ol] |
| 140.2 ± 0.5 | 6.49 ± 0.196 | – | – | O=P(O)(CO)c1ccccc1 [(hydroxymethyl)(phenyl)phosphinic acid] |
| – | – | 1049 ± 1 | 1.3716 ± 0.0007 | CC(=O)O [acetic acid] |
| – | – | 783 ± 1 | 1.343 ± 0.0007 | CC#N [acetonitrile] |
| – | – | 879 ± 1 | 1.5011 ± 0.0007 | c1ccccc1 [benzene] |
| – | – | 790 ± 1 | 1.366 ± 0.0007 | CCO [ethanol] |
| – | – | 899 ± 1 | 1.3719 ± 0.0007 | CCOC(C)=O [ethyl acetate] |
| – | – | 792 ± 1 | 1.3301 ± 0.0007 | CO [methanol] |
| 130.67 ± 0.5 | 6.14 ± 0.186 | – | – | COc1ccc(P(c2ccc(OC)cc2)c2ccc(OC)cc2)cc1 [tris(4-methoxyphenyl)phosphane] |
| 144.69 ± 0.5 | 6.82 ± 0.194 | – | – | COc1ccc(P(=O)(c2ccc(OC)cc2)c2ccc(OC)cc2)cc1 [tris(4-methoxyphenyl)phosphine oxide] |
